From ChEMBL document CHEMBL1131853 (Bioorg Med Chem Lett, 1999)

Tests used:
Mus musculus = assay: Compound was tested in vivo for anticonvulsant activity in DBA/2 mice by i.p. administration; format: functional; conditions: ip
[1] = Effect on low-threshold (T-type) Calcium current in primary cultured rat cerebrocortical neurons; format: functional
D(2) dopamine receptor = D(2) dopamine receptor (Rattus norvegicus, UniProt P61169); assay: Inhibition of [3H]raclopride binding to Dopamine receptor D2 of rat striatum membranes; format: cell membranes, Membrane
D(2) dopamine receptor, sequence (P61169 whole entry): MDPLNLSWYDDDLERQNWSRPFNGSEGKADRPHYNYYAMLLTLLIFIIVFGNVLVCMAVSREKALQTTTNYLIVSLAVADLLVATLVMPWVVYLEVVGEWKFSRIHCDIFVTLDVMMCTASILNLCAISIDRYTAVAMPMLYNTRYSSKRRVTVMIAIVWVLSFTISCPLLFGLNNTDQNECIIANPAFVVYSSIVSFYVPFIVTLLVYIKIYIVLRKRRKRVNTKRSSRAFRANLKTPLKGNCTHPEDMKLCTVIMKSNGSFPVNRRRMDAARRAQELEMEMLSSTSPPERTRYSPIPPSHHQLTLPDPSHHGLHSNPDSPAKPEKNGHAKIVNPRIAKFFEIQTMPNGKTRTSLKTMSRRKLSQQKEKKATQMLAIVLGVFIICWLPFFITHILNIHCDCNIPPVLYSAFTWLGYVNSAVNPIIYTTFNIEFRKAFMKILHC

[2] = target: Sodium channel alpha subunits; brain (Types I, II, III) (Rattus norvegicus, UniProt P04775+P04774+P08104); assay: Inhibition of veratridine-induced depolarization in rat cerebrocortical synaptosomes using the voltage sensitive fluorescent dye Rhodamine 6G; format: functional, subcellular

IC50 [1] [nM]	IC50 (D(2) dopamine receptor) [nM]	IC50 [2] [nM]	SMILES	ED50 (Mus musculus) [mg/kg]
2700	4080	120	Cl.O[C@@H](COc1ccccc1)CN1CCC(c2ccc(Oc3ccccc3)cc2)CC1	2.5
800	–	320	C(=C\c1ccccc1)/CN1CCC(c2ccc(Oc3ccccc3)cc2)CC1.Cl	4.2
2200	–	–	Fc1ccc(C(c2ccc(F)cc2)N2CCN(C/C=C/c3ccccc3)CC2)cc1 [FLUNARIZINE]	6.4
2000	4340	130	Cl.O[C@H](COc1ccccc1)CN1CCC(c2ccc(Oc3ccccc3)cc2)CC1	2.5
800	> 10000	360	Cl.OC(COc1ccccc1)CN1CCC(c2ccc(Cc3ccc(F)cc3)cc2)CC1 (centres undefined)	7.5
3500	4640	220	Cl.OC(COc1ccccc1)CN1CCC(c2ccc(Oc3ccccc3)cc2)CC1 (centres undefined)	5
600	–	190	Cl.Fc1ccc(Cc2ccc(C3CCN(C/C=C/c4ccccc4)CC3)cc2)cc1	2.2
